Values quoted from earlier work in patent US10196364B2, “Pyrimidine carboxamides as sodium channel blockers” (Purdue Pharma L.P., priority 2013, dated 2019).
pIC50: −log10 of the molar value.

Assays:
Nav1.3 = Nav1.3 (Homo sapiens, UniProt Q9NY46); settings: read-out: TTX IC50; cited from earlier work
Nav1.8 = Nav1.8 (Homo sapiens, UniProt Q9Y5Y9); settings: read-out: TTX IC50; cited from earlier work
Chain of Nav1.8 (Q9Y5Y9 whole entry, looked up): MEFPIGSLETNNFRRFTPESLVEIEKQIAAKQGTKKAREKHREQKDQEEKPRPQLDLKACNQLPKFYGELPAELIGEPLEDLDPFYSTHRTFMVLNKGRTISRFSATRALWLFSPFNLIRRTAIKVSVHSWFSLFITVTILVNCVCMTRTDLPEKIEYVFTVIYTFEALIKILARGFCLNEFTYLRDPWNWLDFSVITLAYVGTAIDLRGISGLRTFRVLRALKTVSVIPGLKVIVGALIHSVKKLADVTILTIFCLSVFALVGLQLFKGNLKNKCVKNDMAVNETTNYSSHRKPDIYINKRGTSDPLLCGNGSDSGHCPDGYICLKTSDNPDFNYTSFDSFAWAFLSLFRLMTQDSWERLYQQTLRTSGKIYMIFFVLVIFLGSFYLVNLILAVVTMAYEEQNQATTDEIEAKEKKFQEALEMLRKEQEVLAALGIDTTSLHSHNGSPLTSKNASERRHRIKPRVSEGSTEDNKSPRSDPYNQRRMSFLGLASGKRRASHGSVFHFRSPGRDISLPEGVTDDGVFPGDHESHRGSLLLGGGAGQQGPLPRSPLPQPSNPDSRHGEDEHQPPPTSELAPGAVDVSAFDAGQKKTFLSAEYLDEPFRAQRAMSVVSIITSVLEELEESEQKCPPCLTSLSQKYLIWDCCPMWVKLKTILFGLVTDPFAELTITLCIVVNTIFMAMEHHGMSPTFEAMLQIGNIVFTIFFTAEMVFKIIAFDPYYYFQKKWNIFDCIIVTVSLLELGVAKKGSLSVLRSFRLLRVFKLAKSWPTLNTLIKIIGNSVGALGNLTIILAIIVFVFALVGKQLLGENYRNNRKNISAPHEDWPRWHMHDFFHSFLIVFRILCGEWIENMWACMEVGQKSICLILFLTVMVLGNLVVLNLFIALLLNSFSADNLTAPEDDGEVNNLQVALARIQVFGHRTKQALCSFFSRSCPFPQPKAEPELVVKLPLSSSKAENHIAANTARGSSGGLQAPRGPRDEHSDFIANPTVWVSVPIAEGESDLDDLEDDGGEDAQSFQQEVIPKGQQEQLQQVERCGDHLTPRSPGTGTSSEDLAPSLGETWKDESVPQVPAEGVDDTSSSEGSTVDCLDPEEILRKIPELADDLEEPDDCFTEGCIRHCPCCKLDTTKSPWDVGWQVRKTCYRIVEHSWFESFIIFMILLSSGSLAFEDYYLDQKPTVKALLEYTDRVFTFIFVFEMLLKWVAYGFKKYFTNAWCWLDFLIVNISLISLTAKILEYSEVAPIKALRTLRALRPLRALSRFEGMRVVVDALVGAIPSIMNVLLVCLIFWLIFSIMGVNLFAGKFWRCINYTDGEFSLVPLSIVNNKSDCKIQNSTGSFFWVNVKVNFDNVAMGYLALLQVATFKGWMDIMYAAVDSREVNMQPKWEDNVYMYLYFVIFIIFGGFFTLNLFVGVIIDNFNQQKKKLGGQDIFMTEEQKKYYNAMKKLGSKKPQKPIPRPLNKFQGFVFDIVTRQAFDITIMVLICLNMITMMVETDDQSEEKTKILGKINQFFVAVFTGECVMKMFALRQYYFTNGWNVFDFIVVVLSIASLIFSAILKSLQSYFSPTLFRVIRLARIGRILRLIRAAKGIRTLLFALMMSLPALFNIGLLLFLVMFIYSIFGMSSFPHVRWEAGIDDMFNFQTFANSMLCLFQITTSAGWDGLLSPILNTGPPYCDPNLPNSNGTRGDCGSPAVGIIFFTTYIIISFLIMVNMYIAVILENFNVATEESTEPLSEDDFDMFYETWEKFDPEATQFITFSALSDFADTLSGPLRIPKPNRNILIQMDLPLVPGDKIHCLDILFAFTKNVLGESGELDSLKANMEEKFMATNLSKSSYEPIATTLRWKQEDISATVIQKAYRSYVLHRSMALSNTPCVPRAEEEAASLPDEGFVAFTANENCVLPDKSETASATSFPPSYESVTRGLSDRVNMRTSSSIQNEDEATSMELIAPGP

Chain of Nav1.3 (Q9NY46 whole entry, looked up): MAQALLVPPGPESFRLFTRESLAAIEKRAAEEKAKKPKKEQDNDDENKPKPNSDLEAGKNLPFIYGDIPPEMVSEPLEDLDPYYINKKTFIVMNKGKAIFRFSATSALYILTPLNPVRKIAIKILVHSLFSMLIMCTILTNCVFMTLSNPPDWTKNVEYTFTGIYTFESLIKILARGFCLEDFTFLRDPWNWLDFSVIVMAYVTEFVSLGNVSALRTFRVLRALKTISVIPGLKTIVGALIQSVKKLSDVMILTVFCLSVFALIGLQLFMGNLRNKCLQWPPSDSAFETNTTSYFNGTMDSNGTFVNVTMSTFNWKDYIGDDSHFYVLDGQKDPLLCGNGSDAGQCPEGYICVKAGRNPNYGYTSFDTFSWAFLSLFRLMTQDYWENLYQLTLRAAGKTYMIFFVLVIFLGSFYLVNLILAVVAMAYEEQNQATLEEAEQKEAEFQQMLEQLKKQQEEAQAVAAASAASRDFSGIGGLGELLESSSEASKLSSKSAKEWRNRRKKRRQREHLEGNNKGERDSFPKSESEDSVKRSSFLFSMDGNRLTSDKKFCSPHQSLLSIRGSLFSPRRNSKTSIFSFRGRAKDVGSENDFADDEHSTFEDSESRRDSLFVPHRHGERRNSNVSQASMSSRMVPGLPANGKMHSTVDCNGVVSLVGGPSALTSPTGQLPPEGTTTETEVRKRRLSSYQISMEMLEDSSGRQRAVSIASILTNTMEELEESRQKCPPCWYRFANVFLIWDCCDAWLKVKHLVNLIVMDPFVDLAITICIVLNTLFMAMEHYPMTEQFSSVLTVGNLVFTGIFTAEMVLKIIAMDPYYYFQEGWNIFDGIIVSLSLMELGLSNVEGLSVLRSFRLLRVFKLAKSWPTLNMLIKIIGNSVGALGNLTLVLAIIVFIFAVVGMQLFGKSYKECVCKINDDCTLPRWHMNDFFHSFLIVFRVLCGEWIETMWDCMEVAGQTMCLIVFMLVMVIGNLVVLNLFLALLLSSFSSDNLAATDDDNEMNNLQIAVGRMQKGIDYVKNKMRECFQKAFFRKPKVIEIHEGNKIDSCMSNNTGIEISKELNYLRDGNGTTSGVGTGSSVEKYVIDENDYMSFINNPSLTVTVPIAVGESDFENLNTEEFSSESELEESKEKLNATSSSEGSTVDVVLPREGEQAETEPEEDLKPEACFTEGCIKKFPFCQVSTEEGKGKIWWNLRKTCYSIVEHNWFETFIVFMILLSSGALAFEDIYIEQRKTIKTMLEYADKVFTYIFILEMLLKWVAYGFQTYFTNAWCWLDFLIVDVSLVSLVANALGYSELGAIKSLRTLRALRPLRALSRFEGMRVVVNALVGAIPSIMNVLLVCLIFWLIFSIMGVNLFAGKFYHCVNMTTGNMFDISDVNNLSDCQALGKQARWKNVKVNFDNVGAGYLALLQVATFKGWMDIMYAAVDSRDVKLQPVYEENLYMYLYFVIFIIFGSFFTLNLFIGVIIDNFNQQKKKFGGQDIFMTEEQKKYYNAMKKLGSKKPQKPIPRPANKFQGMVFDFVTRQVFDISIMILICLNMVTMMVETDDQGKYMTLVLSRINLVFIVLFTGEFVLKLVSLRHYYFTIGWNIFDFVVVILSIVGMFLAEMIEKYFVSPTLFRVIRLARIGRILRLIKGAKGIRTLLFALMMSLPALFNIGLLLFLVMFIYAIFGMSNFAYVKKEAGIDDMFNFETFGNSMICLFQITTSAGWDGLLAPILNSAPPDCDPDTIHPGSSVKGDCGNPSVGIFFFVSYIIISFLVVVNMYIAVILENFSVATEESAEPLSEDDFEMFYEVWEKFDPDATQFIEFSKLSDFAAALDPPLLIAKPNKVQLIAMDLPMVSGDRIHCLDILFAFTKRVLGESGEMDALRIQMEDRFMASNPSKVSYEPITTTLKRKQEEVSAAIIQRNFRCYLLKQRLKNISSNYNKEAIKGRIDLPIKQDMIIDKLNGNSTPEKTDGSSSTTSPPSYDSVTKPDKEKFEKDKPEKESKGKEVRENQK

In the case of `NC1=N[C@H](O)[C@H]2[C@H]3O[C@]4(O)O[C@@H]([C@@H](O)[C@@]2(N1)[C@@H]4O)[C@]3(O)CO` [TTX, tetrodotoxin], the pIC50 (Nav1.3) is listed as 7.82 and the pIC50 (Nav1.8) is listed as 4.30.
